According to patent publication US6107068A, “Coenzyme A disulfide reductase, and inhibitors thereof useful as antimicrobial agents” (The University of British Columbia, priority 1997, dated 2000):

What was measured:
[1] = target: S. aureus coenzyme A disulfide reductase (Staphylococcus aureus, UniProt O52582); assay: Steady state kinetic analysis of NADPH oxidation by disulfide substrates catalyzed by purified CoADR (340 nm)
Procedure: (§1) DTNB assays were performed in Tris-HCl (20 mM), pH 8.0, containing EDTA (1 mM) (TE buffer), and were monitored at 412 nm for the nitrobenzothiolate anion (e^412 =15,600 M^-1 cm^-1 (Ellman (1959) Arch. Biochem. Biophys. 82:70-77)). […] For kinetic analysis of purified CoADR activity, the oxidation of NADPH was measured as the decrease in absorbance at 340 nm (De^340 =6,220 M^-1 cm^-1), and was carried out in Tris-HCl (50 mM), pH 7.8, containing NaCl (50 mM).
(§2) The specificity of CoADR for these substrates and various other biological disulfides were quantitated kinetically. Kinetic measurements were performed in a 1 cm path-length quartz cuvette maintained at 37° C. […] Enzyme and NADPH were combined in buffer and equilibrated to 37° C., and the reaction was initialized by the addition of the disulfide substrate. The activity of CoADR was monitored at 340 nm as the decrease in absorbance resulting from the oxidation of NADPH. All kinetic measurements were recorded in the linear range, and at least seven substrate concentrations were used for each analysis. Kinetic constants were calculated from a linear least squares fit of the initial velocity data to the Michaelis-Menton equation using the program HyperO.

[2] = target: Coenzyme A disulfide reductase (CoADR) in extracts of Staphylococcus aureus (Staphylococcus aureus, UniProt O52582); assay: Pyridine nucleotide and disulfide dependent reduction of DTNB by dialyzed S. aureus extracts; format: biochemical
Coenzyme A disulfide reductase (CoADR) in extracts of Staphylococcus aureus, sequence (O52582 2-438): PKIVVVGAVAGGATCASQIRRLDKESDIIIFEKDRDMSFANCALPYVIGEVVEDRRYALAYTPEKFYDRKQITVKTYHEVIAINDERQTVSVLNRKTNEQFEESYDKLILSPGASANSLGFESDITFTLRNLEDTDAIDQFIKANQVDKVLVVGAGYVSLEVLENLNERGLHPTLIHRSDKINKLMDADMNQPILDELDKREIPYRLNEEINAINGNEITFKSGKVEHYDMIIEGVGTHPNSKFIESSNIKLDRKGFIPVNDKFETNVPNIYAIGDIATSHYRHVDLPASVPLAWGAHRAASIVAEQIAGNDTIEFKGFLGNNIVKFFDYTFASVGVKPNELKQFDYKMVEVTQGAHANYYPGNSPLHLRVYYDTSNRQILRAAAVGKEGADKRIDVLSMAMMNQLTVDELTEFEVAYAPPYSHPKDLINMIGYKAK
Procedure: Concentrations of […] (and dephosphoCoA disulfide) were measured spectrophotometrically at 340 nm (e^340 =6220 M^-1 cm^-1), 260 nm (e^260 =33,600 M^-1 cm^-1), and 450 nm (e^450 =11,000 M^-1 cm^-1), respectively. DTNB assays were performed in Tris-HCl (20 mM), pH 8.0, containing EDTA (1 mM) (TE buffer), and were monitored at 412 nm for the nitrobenzothiolate anion (e^412 =15,600 M^-1 cm^-1 (Ellman (1959) Arch. Biochem. Biophys. 82:70-77)). Protein concentrations were determined by reaction with bicinchoninic acid and copper sulfate (Deutscher (1990) in Meth. Enzymol., vol. 182. San Diego: Academic Press, Inc.). During purification, CoADR activity in crude extracts was monitored by the NADPH and CoA disulfide dependent reduction of DTNB. DTNB and all substrates were added at 0.1 mM. For kinetic analysis of purified CoADR activity, the oxidation of NADPH was measured as the decrease in absorbance at 340 nm (De^340 =6,220 M^-1 cm^-1), and was carried out in Tris-HCl (50 mM), pH 7.8, containing NaCl (50 mM).
In order to identify the enzyme responsible for maintaining CoA in its reduced form, S. aureus extracts were analyzed for a disulfide reductase specific for CoA disulfide. An overnight culture (10 ml) of R8325-4 was centrifuged (5,000×g, 10 min), resuspended in 3 ml of TE buffer containing lysostaphin (5 mg/ml), and incubated at 37° C. for 30 min until the suspension became viscous. Glass beads (1 g) and PMSF (to 1 mM) were added, the mixture was vortexed for two minutes and then centrifuged (14,000×g, 10 min) to remove the insoluble cellular debris. The resulting viscous lysate was dialyzed exhaustively (3,600 Mr cutoff) against TE buffer. The dialysate was then assayed for the pyridine nucleotide (1 mM) and CoA disulfide (1 mM) dependent reduction of DTNB (1 mM).

[3] = background statement, Newton et al. (1996); cited from earlier work
[4] = Cu2+ catalyzed oxidation of thiols (remaining thiol by DTNB); format: physicochemical; settings: thiol 1 mM, CuCl2 1 mM, Tris-HCl pH 7.5, ambient temperature
Procedure: To determine the relative stability of CoA to heavy metal-catalyzed oxidation, the rate of Cu^2+ catalyzed oxidation of cysteine, GSH, and CoA were compared. Each sample (2 ml) of thiol (1 mM) in Tris-HCl buffer (20 mM), pH 7.5, containing CuCl2 (1 mM) was incubated at ambient temperature. Thiol determination was then carried out at various times by adding aliquots ([…]) from each sample to a solution ([…]) of DTNB (1 mM) in Tris-HCl buffer (20 mM), pH 8.0, containing EDTA (1 mM). The absorbance of these samples at 412 nm was measured and the concentration of remaining thiol determined.

[5] = test system: NC(=O)C1=CN([C@@H]2O[C@H](COP(=O)(O)OP(=O)(O)OC[C@H]3O[C@@H](n4cnc5c(N)ncnc54)[C@H](OP(=O)(O)O)[C@@H]3O)[C@@H](O)[C@H]2O)C=CC1; assay: purified protein, by the assay type
Procedure: as §1, §2

[6] = test system: CC(C)(COP(=O)(O)OP(=O)(O)OC[C@H]1O[C@@H](n2cnc3c(N)ncnc32)[C@H](O)[C@@H]1O)[C@@H](O)C(=O)NCCC(=O)NCCSSCCNC(=O)CCNC(=O)[C@H](O)C(C)(C)COP(=O)(O)OP(=O)(O)OC[C@H]1O[C@@H](n2cnc3c(N)ncnc32)[C@H](O)[C@@H]1O; assay: purified protein, by the assay type; settings: other: disulfide substrate varied, NADPH maintained at 200 mM, 37° C., nd = no activity detected
Procedure: as §1, §2

[7] = test system: CC(C)(COP(=O)(O)OP(=O)(O)OC[C@H]1O[C@@H](n2cnc3c(N)ncnc32)[C@H](O)[C@@H]1OP(=O)(O)O)[C@@H](O)C(=O)NCCC(=O)NCCSSCCNC(=O)CCNC(=O)[C@H](O)C(C)(C)COP(=O)(O)OP(=O)(O)OC[C@H]1O[C@@H](n2cnc3c(N)ncnc32)[C@H](O)[C@@H]1OP(=O)(O)O; assay: purified protein, by the assay type; settings: other: disulfide substrate varied, NADPH maintained at 200 mM, 37° C., nd = no activity detected
Procedure: as §1, §2

[8] = test system: CC(C)(COP(=O)(O)O)[C@@H](O)C(=O)NCCC(=O)NCCSSCCNC(=O)CCNC(=O)[C@H](O)C(C)(C)COP(=O)(O)O; assay: purified protein, by the assay type; settings: other: disulfide substrate varied, NADPH maintained at 200 mM, 37° C., nd = no activity detected
Procedure: as §1, §2

[9] = test system: CC(C)(COP(=O)(O)OP(=O)(O)OC[C@H]1O[C@@H](n2cnc3c(N)ncnc32)[C@H](O)[C@@H]1OP(=O)(O)O)[C@@H](O)C(=O)NCCC(=O)NCCSSC[C@H](NC(=O)CC[C@H](N)C(=O)O)C(=O)NCC(=O)O; assay: purified protein, by the assay type; settings: other: disulfide substrate varied, NADPH maintained at 200 mM, 37° C., nd = no activity detected
Procedure: as §1, §2

[10] = target: the molecule itself; assay: gel exclusion chromatography of the native enzyme (approximately 85 kD) compared with SDS-PAGE of the subunit (~50 kD)
[11] = other: NADPH varied, CoA disulfide maintained at 120 mM, 37° C.

S. aureus coenzyme A disulfide reductase, sequence (O52582 2-438): as above

Molecule: CC(C)(CO)[C@@H](O)C(=O)NCCC(=O)NCCSSCCNC(=O)CCNC(=O)[C@H](O)C(C)(C)CO [pantethine]
- turnover / activity with CoADR [1]: not turned over
- function in the NADPH-dependent reduction of DTNB [2]: did not function

Molecule: CC(C)(COP(=O)(O)OP(=O)(O)OC[C@H]1O[C@@H](n2cnc3c(N)ncnc32)[C@H](O)[C@@H]1OP(=O)(O)O)[C@@H](O)C(=O)NCCC(=O)NCCS [CoA, Coenzyme A]
- stability to heavy metal-catalyzed auto-oxidation [3]: slightly more stable than glutathione

Molecule: NC(=O)C1=CN([C@@H]2O[C@H](COP(=O)(O)OP(=O)(O)OC[C@H]3O[C@@H](n4cnc5c(N)ncnc54)[C@H](O)[C@@H]3O)[C@@H](O)[C@H]2O)C=CC1 [NADH]
- use in the CoA disulfide dependent reduction of DTNB [2]: cannot be used

Molecule: N[C@@H](CSSC[C@H](N)C(=O)O)C(=O)O [cystine]
- turnover / activity with CoADR [1]: No activity could be detected
- function in the NADPH-dependent reduction of DTNB [2]: did not function

Molecule: N[C@@H](CCC(=O)N[C@@H](CS)C(=O)NCC(=O)O)C(=O)O [GSH, g-glutamyl-cysteinyl-glycine]
- stability to copper-catalyzed autooxidation [4]: much more stable than cysteine

Molecule: CC(C)(COP(=O)(O)OP(=O)(O)OC[C@H]1O[C@@H](n2cnc3c(N)ncnc32)[C@H](O)[C@@H]1O)[C@@H](O)C(=O)NCCC(=O)NCCSSCCNC(=O)CCNC(=O)[C@H](O)C(C)(C)COP(=O)(O)OP(=O)(O)OC[C@H]1O[C@@H](n2cnc3c(N)ncnc32)[C@H](O)[C@@H]1O [3'-dephospho-CoA disulfide]
- change in kcat as compared to CoA disulfide [1]: no detectable change
- increase in Km as compared to CoA disulfide [1]: 10 fold

Molecule: CC(C)(COP(=O)(O)O)[C@@H](O)C(=O)NCCC(=O)NCCSSCCNC(=O)CCNC(=O)[C@H](O)C(C)(C)COP(=O)(O)O [4,4'-diphospho-pantethine]
- kcat lower than for 3'-dephospho-CoA disulfide [1]: 2-3 fold

Molecule: S. aureus coenzyme A disulfide reductase (Staphylococcus aureus subsp. aureus NCTC 8325)
- Km [5, 11]: 1.6 µM
- kcat [5, 11]: 17 ± 1 s⁻¹
- Km ([5]; other: at saturating CoA disulfide, 37.0 °C): 2 µM
- Km [6]: 140 µM
- Km [7]: 11 µM
- Km [8]: 80 µM
- Km [9]: 1100 µM

B1: Coenzyme A disulfide reductase (CoADR) from Staphylococcus aureus (enzyme)
chain: PKIVVVGAVAGGATCASQIRRLDKESDIIIFEKDRDMSFANCALPYVIGEVVEDRRYALAYTPEKFYDRKQITVKTYHEVIAINDERQTVSVLNRKTNEQFEESYDKLILSPGASANSLGFESDITFTLRNLEDTDAIDQFIKANQVDKVLVVGAGYVSLEVLENLNERGLHPTLINRSDKINKLMDADMNQPILDELDKREIPYRLNEEINAINGNEITFKSGKVEHYDMIIEGVGTHPNSKFIESSNIKLDRKGFIPVNDKFETNVPNIYAIGDIATSHYRHVDLPASVPLAWGAHRAASIVAEQIAGNDTIEFKGFLGNNIVKFFDYTFASVGVKPNELKQFDYKMVEVTQGAHANYYPGNSPLHLRVYYDTSNRQILRAAAVGKEGADKRIDVLSMAMMNQLTVDELTEFEVAYAPPYSHPKDLINMIGYKAK
- binding result [10]: binds
